According to the supplement of paper PMC8837787:

Tested on: Saccharomyces cerevisiae ABC16-Green Monster
Settings: 18 h; 30 °C; YPD
Method in brief: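 Drug-sensitive S. cerevisiae ABC16-Green Monster cells were grown to log phase in YPD and dispensed at 200 µl per well into 96-well plates. Cultures were treated in biological duplicate with eight 1:2 compound dilutions (final 0.1–150 μM), alongside untreated cultures, for 18 h at 30 °C, and OD600 was read at 0 h and 18 h. IC50 was obtained by variable-slope nonlinear regression of log(inhibitor) versus response in GraphPad Prism, using background-subtracted readings.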

Q: Which IC50 growth inhibition does the source give for OCc1ccc(-c2cncc(Nc3cccc(Cl)c3)c2)cc1 here?
A: 6.31 µM

Q: N#C/C(=C\c1cn(Cc2ccccc2)nc1-c1cccnc1)c1nc2ccccc2[nH]1 was tested. Which IC50 growth inhibition did it give?
A: 138 µM

Q: How did the IC50 growth inhibition turn out when CCOc1cccc2sc(N(Cc3cccnc3)C(=O)C3CCCCC3)nc12 was run?
A: 25.7 µM

Q: For COc1ccc2sc(N(Cc3cccnc3)C(=O)c3ccc(C#N)cc3)nc2c1, which IC50 growth inhibition is on record?
A: 3.85 µM

Q: With CC(=O)OC1c2nc(cs2)C(=O)OC(CCCC(C)(Cl)Cl)C(C)C(=O)OC(C(C)(C)O)c2nc(cs2)C(=O)OC1(C)C (centres undefined) [Hectochlorin] as the molecule, how does the IC50 growth inhibition read?
A: 0.25 µM

Q: With O=C1N=c2ccccc2=C1NNC(=S)N1CCOCC1 as the molecule, how does the IC50 growth inhibition read?
A: 16.4 µM

Q: How did the IC50 growth inhibition turn out when Cc1nn2c(=O)cc(-c3ccccc3)[nH]c2c1-c1ccc(F)cc1 was run?
A: 39 µM

Q: With CC(C)c1cc(NCc2ccccn2)n2ncc(-c3ccccc3)c2n1 as the molecule, how does the IC50 growth inhibition read?
A: 0.45 µM

Q: For Cl.c1ccc(C2CCCC2NC2=NCCCCCCCCCCC2)cc1 (centres undefined) [MDL-12], which IC50 growth inhibition is on record?
A: 54.6 µM

Q: With CC1(C)c2nc(-c3ccc(F)cc3)c(Nc3ccc(Cl)cc3)n2CCN1C(=O)CN [GNF179] as the molecule, how does the IC50 growth inhibition read?
A: 38 µM

Q: For O=C(Nc1ccccc1)c1ccc(-c2cc3ccncc3cc2OC2CCNCC2)s1, which IC50 growth inhibition is on record?
A: 44.8 µM

Q: How did the IC50 growth inhibition turn out when O=c1c2ccccc2[nH]c2ccc(I)cc12 [GNF-Pf-4577] was run?
A: > 150 µM

Q: For Cc1ccc(Nc2nc(N)nc(CN(C)Cc3nc(=O)c4ccccc4[nH]3)n2)cc1, which IC50 growth inhibition is on record?
A: 32.3 µM

Q: How did the IC50 growth inhibition turn out when CCC1(O)C(=O)OCc2c1cc1n(c2=O)Cc2cc3ccccc3nc2-1 (centres undefined) [Camptothecin] was run?
A: 1.61 µM

Q: How did the IC50 growth inhibition turn out when CCC(C)C1OC2(CCC1C)CC1CC(CC=C(C)C(OC3CC(OC)C(OC4CC(OC)C(O)C(C)O4)C(C)O3)C(C)C=CC=C3COC4C(O)C(C)=CC(C(=O)O1)C34O)O2 (centres undefined) [Ivermectin] was run?
A: > 75 µM

Q: For CCN(CC)S(=O)(=O)c1ccc(C(=O)Nc2cc(C)nn2-c2nc(C)c(C)c(=O)[nH]2)cc1, which IC50 growth inhibition is on record?
A: 68.4 µM

Q: Which IC50 growth inhibition does the source give for CCC(C(C)O)n1ncn(-c2ccc(N3CCN(c4ccc(OCC5COC(Cn6cncn6)(c6ccc(F)cc6F)C5)cc4)CC3)cc2)c1=O (centres undefined) [Posaconazole] here?
A: 0.71 µM

Q: How did the IC50 growth inhibition turn out when C[C@H]1Cc2c([nH]c3cc(Cl)c(F)cc23)[C@@]2(N1)C(=O)Nc1ccc(Cl)cc12 [KAE609] was run?
A: 7.65 µM

Q: For CC(C)c1ccc(C2C3CCc4ccccc4C3=NN2CCO)cc1 (centres undefined), which IC50 growth inhibition is on record?
A: 49.9 µM

Q: Which IC50 growth inhibition does the source give for CCOC(=O)C1=C(C)NC(C)=C(C(=O)OC)C1c1cccc(Cl)c1Cl (centres undefined) [Felodipine] here?
A: 20.7 µM

Q: How did the IC50 growth inhibition turn out when COc1cccc2c1C(=O)c1c(O)c3c(c(O)c1C2=O)CC(O)(C(=O)CO)CC3OC1CC(N)C(O)C(C)O1 (centres undefined) [Doxorubicin] was run?
A: 11.2 µM

Q: For Cn1c(N)c(C(=O)CSc2nnc(-c3ccccc3)c(-c3ccccc3)n2)c(=O)n(C)c1=O, which IC50 growth inhibition is on record?
A: 22.9 µM

Q: CCOc1ccc(-c2nc(CNCCc3ccc(F)cc3)cs2)cc1 was tested. Which IC50 growth inhibition did it give?
A: 42.5 µM

Q: With CC(=O)Nc1cccc(-n2c(=O)n(C3CC3)c(=O)c3c(Nc4ccc(I)cc4F)n(C)c(=O)c(C)c32)c1 [Trametinib] as the molecule, how does the IC50 growth inhibition read?
A: > 75 µM

Q: With Clc1ccc(Cl)c(CO[C@H]2CCCC[C@@H]2n2ccnc2)c1 as the molecule, how does the IC50 growth inhibition read?
A: 68.6 µM

Q: How did the IC50 growth inhibition turn out when O=C1CCC(N2C(=O)c3ccccc3C2=O)C(=O)N1 (centres undefined) [Thalidomide] was run?
A: > 75 µM

Q: Which IC50 growth inhibition does the source give for COc1ccc2nc(S(=O)Cc3ncc(C)c(OC)c3C)[nH]c2c1 (centres undefined) [Omeprazole] here?
A: > 75 µM

Q: Which IC50 growth inhibition does the source give for CC1(COc2ccc(N3CCC(Oc4ccc(OC(F)(F)F)cc4)CC3)cc2)Cn2cc([N+](=O)[O-])nc2O1 (centres undefined) [Delamanid] here?
A: > 75 µM

Q: For O=C(NCCc1ccccc1)c1cc(-c2cccnc2)cnc1NCC1CC1, which IC50 growth inhibition is on record?
A: 15.9 µM

Q: How did the IC50 growth inhibition turn out when Cc1c(N)nc(C(CC(N)=O)NCC(N)C(N)=O)nc1C(=O)NC(C(=O)NC(C)C(O)C(C)C(=O)NC(C(=O)NCCc1nc(-c2nc(C(=O)NCCC[S+](C)C)cs2)cs1)C(C)O)C(OC1OC(CO)C(O)C(O)C1OC1OC(CO)C(O)C(OC(N)=O)C1O)c1cnc[nH]1 (centres undefined) [Bleomycin (JP1)] was run?
A: > 75 µM

Q: COC(=O)Nc1nc2cc(C(=O)c3ccccc3)ccc2[nH]1 was tested. Which IC50 growth inhibition did it give?
A: 58.4 µM

Q: For COC1OC2OC3(C)CCC4C(C)CCC(C1C)C24OO3 (centres undefined) [Artemether], which IC50 growth inhibition is on record?
A: 70.6 µM

Q: Which IC50 growth inhibition does the source give for CCC(NC(=O)c1ccccc1NC(=O)c1ccc(C)cc1)C(=O)OC (centres undefined) here?
A: 31.7 µM

Q: With COc1ccc(C2CC(c3cccs3)=NN2C(=O)c2ccco2)cc1OC (centres undefined) as the molecule, how does the IC50 growth inhibition read?
A: 83.6 µM

Q: With OCCc1ccc(Nc2nccc(-c3nnc4ccccn34)n2)cc1 as the molecule, how does the IC50 growth inhibition read?
A: 43.9 µM

Q: For CC1=NN(c2nc3ccccc3[nH]2)C(=O)C1Cc1ccccc1 (centres undefined) [CBR110], which IC50 growth inhibition is on record?
A: 3.48 µM

Q: Which IC50 growth inhibition does the source give for CCS(=O)(=O)N1Cc2ccccc2CC1C(=O)Nc1nc2ccc(F)cc2s1 (centres undefined) here?
A: 74 µM

Q: CC(C(=O)O)c1ccc2c(c1)[nH]c1ccc(Cl)cc12 (centres undefined) [Carprofen] was tested. Which IC50 growth inhibition did it give?
A: > 75 µM

Q: How did the IC50 growth inhibition turn out when O=C(Nc1cc(Oc2cc(F)c(NC(=O)C3(C(=O)Nc4ccc(F)cc4)CC3)cc2F)ccn1)C1CC1 [Altiratinib] was run?
A: > 75 µM

Q: For O=C(Nc1nnc(-c2ccc(Cl)cc2)o1)c1cccc(C(F)(F)F)c1, which IC50 growth inhibition is on record?
A: 71.2 µM

Q: How did the IC50 growth inhibition turn out when O=C1CCc2ccc(OCCCCN3CCN(c4cccc(Cl)c4Cl)CC3)cc2N1 [Aripiprazole] was run?
A: 9.31 µM

Q: For Cc1cccc(-n2ncc3c(=O)[nH]c(-n4nc(C)cc4NC(=O)c4cc5ccccc5o4)nc32)c1, which IC50 growth inhibition is on record?
A: 7.06 µM

Q: Which IC50 growth inhibition does the source give for CC1(C)C2CCC(C2)C1(C)NC(=S)NN=Cc1ccccn1 (centres undefined) [GNF-Pf-5458] here?
A: 3.1 µM

Q: For CC(=O)NCC1CN(c2ccc(-c3ccc(CNCc4cn[nH]n4)cc3)c(F)c2)C(=O)O1 (centres undefined) [Radezolid], which IC50 growth inhibition is on record?
A: > 75 µM
